Experimental findings from paper PMC10896388, “Hybrid Allosteric Modulators of M1 Muscarinic Receptors Enhance Acetylcholine Efficacy and Decrease Locomotor Activity and Turning Behaviors in Zebrafish” (Research Square, 2024) are described below.

Series [1] relates to wild-type (AB) zebrafish (Danio rerio). As to the kind of experiment: Maximum tolerated concentration (MTC) determination in zebrafish larvae. Type of series: in vivo. The following applies: for MTC (maximum tolerated concentration): 5 dpf zebrafish larvae, after 24-hr exposure. The procedure:
Determination of maximum tolerated concentration (adapted from Berghmans)[52] was completed by placing 5 days post fertilization (dpf) wild-type zebrafish larvae in a 24 well plate at 6 fish per well, and one compound concentration per well. […] Death was determined by the absence of heartbeat. Additional endpoints were used to assess toxicity at non-lethal concentrations such as startle capacity (poke stimulus), abnormalities in swimming behavior (loss of dorsoventral balance), and gross morphological deformities (bent body). […] The MTC determination was used to select three doses of each compound (low, medium, high dose) to be used in behavioral assays.

Series [2] has the same test system. Briefly: animal or person. The series is classed as in vivo. Particulars: for Therap. Index: zebrafish, apparently MTC / MEC; for EC50: Danio rerio, AB zebrafish larvae. The procedure:
The movement of larval zebrafish was monitored with the Noldus behavior recording system (Noldus Information Technology, Leesburg VA) and quantified using EthoVision® XT 15 software (Noldus Information Technology, Leesburg VA). Five-dpf zebrafish larvae were exposed to a range of nonlethal concentrations of compounds in a 24-well plate with appropriate controls. The plate was immediately placed in the incubator for a 30-minute exposure period. After 30 minutes, the plate was transferred to the Noldus system and swimming behavior was recorded in 100% light for 30 minutes to measure spontaneous swimming behavior. The light was switched off for 10 minutes (dark period) and then switched on for 10 minutes (light period), which was then repeated for two additional cycles. In total, the larvae were exposed to three cycles of alternating 10-minute dark and light periods (100% darkness-to-100% light). Each drug challenge was conducted on three separate plates with n = 6 larvae/dose/plate.
Absolute turn angle (TA) and angular velocity provided measures of the extent of turning behavior, while the intra-individual variance of turn angle quantified how consistently (low variance) or inconsistently (high variance) fish turned. A lowered intra-individual variance of turning reflected repeatedly performing the same turning behavior, a stereotypy.[53]
All data for exposure and the behavioral end points were analyzed by one-way ANOVA (factor: drug concentration) followed by a Dunnett’s multiple comparisons test for post hoc significance between drug concentration and control group. Statistically significant differences are noted as follows; *, p < 0.05; **, p < 0.01; ***, p < 0.001.

For series [3] the test system is unchanged. The series is classed as in vivo. Particulars: zebrafish larvae; 30-minute spontaneous swimming period; mean ± s.e.m., N = 12; test concentration not given.
Series [4] addresses T1, human M1 muscarinic receptors (Homo sapiens, UniProt P11229).
T1 sequence (P11229 1-460): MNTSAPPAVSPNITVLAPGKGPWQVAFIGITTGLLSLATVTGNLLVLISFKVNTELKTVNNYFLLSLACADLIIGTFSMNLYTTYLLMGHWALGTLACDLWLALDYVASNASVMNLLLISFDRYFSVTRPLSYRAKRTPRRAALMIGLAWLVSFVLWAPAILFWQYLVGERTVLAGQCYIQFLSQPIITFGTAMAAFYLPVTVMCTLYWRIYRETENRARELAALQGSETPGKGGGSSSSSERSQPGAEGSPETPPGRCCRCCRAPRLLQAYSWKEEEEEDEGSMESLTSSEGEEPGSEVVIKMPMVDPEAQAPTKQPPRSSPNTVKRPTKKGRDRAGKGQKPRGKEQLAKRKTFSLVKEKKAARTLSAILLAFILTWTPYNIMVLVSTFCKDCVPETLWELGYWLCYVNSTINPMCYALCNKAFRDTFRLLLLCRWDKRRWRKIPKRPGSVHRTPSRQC
Briefly: Full ACh dose-response curves of [3H]AA release fitted to an allosteric operational model.
Description: Tabulated [^3H]AA release data are represented as a fraction of maximal release elicited by ACh or as the fraction of release elicited by the relevant concentration of ACh alone, as indicated. Dose-response curves were normalized to the maximal response of ACh without allosteric ligand. Where indicated, response curves were analyzed using the empirical four-parameter equation: Y=Top+Bottom−Top/1+X/C50^n where X is the concentration of the ligand used, Y is the amount of response, C50 is the concentration of the ligand that produces 50% of the maximal effect, Top and Bottom are the top and bottom plateaus of the curve, and n is related to the Hill slope for the curve. Where indicated, families of response curves were analyzed according to an allosteric operational model:[50],[51]
where EM is the maximal response; A is the concentration of ACh; B is the concentration of the allosteric ligand; τA and τB represent the operational efficacies of A and B, respectively; KA and KB are the equilibrium dissociation constants of A and B; and α and β represent the cooperativities between A and B in terms of binding and activation, respectively. Curve-fitting was carried out with GraphPad Prism, version 5.0 or 6.0 (San Diego CA).

Series [5] has as its target T1, human M1 muscarinic receptors. Briefly: [3H]-arachidonic acid release in CHO cells expressing M1 receptors, with and without ACh. Type of series: cell-based. Details: expressed in transfected cells; host or cells: CHO cells (stably transfected CHO-hM1, from Mark Brann's laboratory, NIH). The method, then:
CHO cells expressing human M1 muscarinic receptors were cultured at 37°C in a 5% CO2 atmosphere in F12 medium supplemented with 5% fetal bovine serum, 100 units/mL penicillin, and 100µg/mL streptomycin. These cells were obtained from Mark Brann’s laboratory when they were at NIH and have been in use by us and others for many years.[49]
Measurement of [^3H]AA release was performed as described in Stahl and Ellis.[24] Stably transfected CHO-hM1 cells were seeded on 24-well plates (Greiner Bio-One GmbH, Frickenhausen, Germany) at a density of 5.0 × 10^4 cells/well in 0.5 ml of F-12 medium. Cells were incubated until they attached (approximately 3 h), followed by the addition of [^3H]AA to a final concentration of 0.05 µCi of [^3H]AA per well. The cells were then grown for 16 to 20 h before the assay was performed. [^3H]AA release was measured in Eagle’s basal medium with 20 mM HEPES and 2 mg/ml fatty acid-free bovine serum albumin (EM-BSA). Cells were rinsed twice with EM-BSA, followed by the addition of EM-BSA media containing experimental agents and incubated for 1 h at 37°C. The assay was terminated by aspiration of the media, and the amount of [^3H]AA released was determined by liquid scintillation counting (Beckman-Coulter LS6500). […]
Tabulated [^3H]AA release data are represented as a fraction of maximal release elicited by ACh or as the fraction of release elicited by the relevant concentration of ACh alone, as indicated. Dose-response curves were normalized to the maximal response of ACh without allosteric ligand. Where indicated, response curves were analyzed using the empirical four-parameter equation: […] where X is the concentration of the ligand used, Y is the amount of response, C50 is the concentration of the ligand that produces 50% of the maximal effect, Top and Bottom are the top and bottom plateaus of the curve, and n is related to the Hill slope for the curve. Where indicated, families of response curves were analyzed according to an allosteric operational model:[50],[51]

Where [6] appears, read: best-fit parameter, allosteric operational model, Em set to 2.0, ACh as agonist.

“Also recorded” adds a separate entry of the source. Like-named read-outs stand apart in the source and are kept apart here. Where only a bound is given, the exact number is not on record here.

Turning to VU0238408 [reference compound], the “MTC (maximum tolerated concentration)” value in series [1] came to 30 µM. Moreover, in series [2] (zebrafish larvae, locomotor behaviors, abbreviation not defined in the paper), the MEC is given as 1 µM. In series [2], the “Therap. Index” value was determined as 30. Also, in series [3], the “Angular Velocity, percentage change relative to controls” value was 180.1 ± 20.3 %; the “Distance Moved, percentage change relative to controls” value came to 34.6 ± 4.0 %; the “Variance Turn Angle, percentage change relative to controls” value is reported as 146.6 ± 12.4 %.
Turning to `COc1c(I)cc(CN2C(=O)C(=O)c3ccccc32)cc1I` [Compound 8a, 1-(3,5-diiodo-4-methoxybenzyl)indoline-2,3-dione], the “MTC (maximum tolerated concentration)” value in series [1] is over 30 µM. The “signs of toxicity (in words)” value in series [1] (zebrafish, concentrations up to 30 μM, the highest concentration tested) was “neither produced any signs of toxicity”. Further, the “effect on locomotor activity and turning behaviors (in words)” value in series [2] (AB zebrafish, 30-minute spontaneous swimming period) is listed as “reduced locomotor activity”. In series [2] (AB zebrafish, compared with BQCA), the “concentration with significant effects on zebrafish behavior” value was found to be 1 µM. Also, the 50% effective concentration (EC50) in series [2] (read-out: EC50 for decreasing locomotor activity) was determined as 5600 nM. The EC50 in series [2] (read-out: EC50 for decreasing repetitive behaviors (increasing angular velocity)) was found to be 2600 nM. Further, the “Therap. Index” value in series [2] was over 100. Besides, in series [4], the Kb was found to be 550 nM and binding was characterised by a dissociation constant (Kd) of 550 nM. For the same compound, in series [4] (setting [6]), the “Binding cooperativity, A-B, α” value came out at 0.69 ± 0.24 and the “Operational Efficacy-B, τB” value turned out to be 0.17 ± 0.03. For the same compound, the “modulation of ACh response (in words)” value in series [5] ([3H]AA release, CHO-hM1, modulators at 10 µM (amiodarone 30 µM)) was “significant enhancement of ACh activity; also recorded: dramatically enhanced ACh efficacy”.
For the compound `CCCCc1oc2ccccc2c1C(=O)c1cc(I)c(OCCN(CC)C(=O)c2ccccc2)c(I)c1` [Compound 5b, N-(2-(4-(2-butylbenzofuran-3-carbonyl)-2,6-diiodophenoxy)ethyl)-N-ethylbenzamide], the “MTC (maximum tolerated concentration)” value in series [1] stood at 10 µM. Besides, in series [3], the “Angular Velocity, percentage change relative to controls” value is reported as 80.4 ± 11.5%; the “Distance Moved, percentage change relative to controls” value was 87.7 ± 13.5%; the “Variance Turn Angle, percentage change relative to controls” value turned out to be 77.8 ± 9.3%. The “intrinsic agonist activity (in words)” value in series [5] ([3H]AA release in the absence of ACh, 10 µM) is “lacked intrinsic activity”. Moreover, the “increase in mAChR activity compared to treatment with ACh alone” value in series [5] ([3H]AA release, CHO-hM1, predominantly at higher doses of ACh (Table 2, not available)) is 80%.
